Literature values as cited in patent US20080242648A1, “COMBINATION OF ERa+ LIGANDS AND HISTONE D[…] THE TREATMENT OF CANCER” (Syndax Pharmaceuticals, Inc., a California Corporation, priority 2006, published 2008).

System: breast cancer
Conditions: second line setting, post-menopausal women

## 7-alpha-[9-(4,4,5,5,5-penta fluoropentylsulphinyl)nonyl]estra-1,3,5-(10)-triene-3,17-beta-diol [Faslodex]
  response rate: 17-20%
  time to progression: 5.4-5.5 month
